This assay has as its target T1, sGC α1/β1 heterodimer (Homo sapiens, UniProt Q02108+Q02153).
T1 construct: expressed in transfected cells; host or cells: CHO-K1 (clone #7, CHO-K1/sGC)
T1 sequence (Q02108 1-690): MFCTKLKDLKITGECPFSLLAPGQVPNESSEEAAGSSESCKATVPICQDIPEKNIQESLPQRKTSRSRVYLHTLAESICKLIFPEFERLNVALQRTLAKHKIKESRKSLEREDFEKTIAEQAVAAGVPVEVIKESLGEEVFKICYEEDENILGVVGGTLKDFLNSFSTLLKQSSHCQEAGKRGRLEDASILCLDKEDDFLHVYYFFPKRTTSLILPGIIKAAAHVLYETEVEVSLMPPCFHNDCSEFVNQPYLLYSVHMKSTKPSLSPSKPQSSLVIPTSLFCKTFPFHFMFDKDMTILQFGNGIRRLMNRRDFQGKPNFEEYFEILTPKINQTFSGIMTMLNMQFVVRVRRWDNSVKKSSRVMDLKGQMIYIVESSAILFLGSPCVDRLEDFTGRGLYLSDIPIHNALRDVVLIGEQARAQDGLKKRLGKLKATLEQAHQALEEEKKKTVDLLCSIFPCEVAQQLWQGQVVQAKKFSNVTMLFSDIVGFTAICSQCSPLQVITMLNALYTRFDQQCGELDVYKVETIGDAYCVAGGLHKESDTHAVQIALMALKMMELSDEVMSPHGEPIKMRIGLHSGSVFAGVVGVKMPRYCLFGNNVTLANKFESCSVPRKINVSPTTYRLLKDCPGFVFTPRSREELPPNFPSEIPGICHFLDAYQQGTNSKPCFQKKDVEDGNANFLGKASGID
T1 sequence (Q02153 1-619): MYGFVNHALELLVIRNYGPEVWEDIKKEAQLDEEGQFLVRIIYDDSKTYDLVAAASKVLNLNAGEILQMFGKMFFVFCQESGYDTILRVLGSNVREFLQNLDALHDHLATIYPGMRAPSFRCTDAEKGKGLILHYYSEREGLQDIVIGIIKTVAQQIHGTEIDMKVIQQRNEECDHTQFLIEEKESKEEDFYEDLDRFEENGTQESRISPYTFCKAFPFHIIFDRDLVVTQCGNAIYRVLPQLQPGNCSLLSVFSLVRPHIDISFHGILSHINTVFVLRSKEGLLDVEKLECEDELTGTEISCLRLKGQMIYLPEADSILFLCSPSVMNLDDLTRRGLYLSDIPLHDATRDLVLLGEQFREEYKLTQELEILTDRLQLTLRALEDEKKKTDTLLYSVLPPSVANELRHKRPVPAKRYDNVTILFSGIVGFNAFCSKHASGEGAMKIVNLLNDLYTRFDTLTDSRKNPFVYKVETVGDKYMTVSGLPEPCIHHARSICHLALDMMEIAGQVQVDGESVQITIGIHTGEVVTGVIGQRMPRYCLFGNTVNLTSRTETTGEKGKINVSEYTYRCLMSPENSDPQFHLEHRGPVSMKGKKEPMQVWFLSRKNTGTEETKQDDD
The assay is described as follows: Cell-based sGC functional assay (CASA assay): cGMP generation in CHO-K1/sGC cells, HTRF detection. Particulars: for Emax: CHO-K1, percent activation relative to standard Compound A in CHO-K1/sGC cells, read-out: % Act.; for pEC50: inflection point (IP) of cGMP generation in CHO-K1/sGC cells, 4P fit, activity expressed as percentage of Compound A. The source says:
Biological Assay 1: Cell-Based sGC Functional Assay (CASA Assay)
sGC is a heme-containing enzyme that converts GTP to secondary messenger cGMP. Increases in cGMP levels affect several physiological processes including vasorelaxation through multiple downstream pathways. […] Heme-dependent activators (HDAs) preferentially activate sGC containing a ferrous heme group. To determine the effect of sGC activators on enzyme activity, the CASA assay was developed to monitor the generation of cGMP in a cell line that stably expresses the heterodimeric sGC protein.
A CHO-K1 cell line stably expressing the sGC α1/β1 heterodimer was generated using a standard transfection protocol. CHO-K1 cells were transfected with plasmids pIREShyghsGCal and pIRESneo-hsGCβ1 simultaneously using FUGENE reagent. Clones that stably express both subunits were selected with hygromycin and neomycin for 2 weeks. Clone #7 was chosen for the assay and was designated CHO-K1/sGC. CHO-K1/sGC cells were maintained in F-K12 medium containing 10% heat-inactivated Fetal Bovine Serum (FBS), 100 μg/mL penicillin/streptomycin, 0.5 mg/mL hygromycin and 0.25 mg/mL G418. The cells were then cryopreserved in LN2. On the day of the assay, cells thawed and resuspended in EBSS Assay Buffer (Sigma, E3024) supplemented with 5 mM MgCl2, 10 mM HEPES (4-(2-hydroxyethyl)piperazine-1-ethanesulfonic acid) and 0.05% BSA (bovine serum albumin) (EAB) and cell density was then adjusted to 4×10^5/mL with EAR IBMX (3-isobutyl-1-methylxanthin, 0.5 mM) was added to inhibit degradation of cGMP. Compounds were diluted from DMSO stock solutions and added to the assay at a final DMSO concentration of 2.5%. Cells were incubated with compounds in the presence and absence of 1 μM of Diethylenetriamine/nitric oxide adduct (DETA-NO; Sigma, 17018) for 1 hr at 37° C. At the end of the incubation period, the reaction was terminated and the cells were lysed with the detection reagents from Cisbio Kits. The level of intracellular cGMP was determined using an HTRF-based assay kit (CisBio, 62GM2PEC), which detects the displacement of a fluorescence labeled cGMP from its specific antibody. The cGMP produced by test compounds was directly compared to the maximum cGMP production (this value was set to equal 100% activation.) of the published sGC-HDA Compound A:
[drawing 597] (Example 1 in WO 2010/065275, published Jun. 10, 2010). The test compounds' activities were then expressed as a percentage of Compound A, the standard in every experiment. This percent activation was calculated either in the presence or absence of DETA-NO which was then plotted. IP and maximum fold induction was derived using ADA analysis software for 4P fit.
The compounds in the Examples of the instant invention had inflection points (IP) less than or equal to 10 μM and more particularly less than or equal to about 1 μM.

From patent US9796733B2, “Imidazo-pyrazine derivatives useful as soluble guanylate cyclase activators” (Merck Sharp & Dohme Corp., priority 2014, dated 2017) come the findings set out here.

pEC50: −log10 of the molar value.

As to `CC1(c2ccc(F)cc2)C(=O)Nc2nc(-c3cn4cc(C(F)(F)F)nc4c(Cc4ccc(F)c(F)c4)n3)nc(N)c21` (stereo not shown) [Example 152A, 4-amino-2-(8-(3,4-difluorobenzyl)-2-(trifluoromethyl)imidazo[1,2-a]pyrazin-6-yl)-5-(4-fluorophenyl)-5-methyl-5H-pyrrolo[2,3-d]pyrimidin-6(7H)-one], the Emax amounted to 129% and the pEC50 (as a rule, the negative decadic logarithm of the EC50, by convention in mol/L) is 7.37.
On the same counts, the results for `Nc1nc(-c2cn3ccnc3c(Cc3ccccc3F)n2)nc2c1C(c1ccc(Cl)cn1)(C1CC1)C(=O)N2` (stereo not shown) [Example 110A, 4-amino-5-(5-chloropyridin-2-yl)-5-cyclopropyl-2-(8-(2-fluorobenzyl)imidazo[1,2-a]pyrazin-6-yl)-5H-pyrrolo[2,3-d]pyrimidin-6(7H)-one] are 154% and 7.29.
On the same counts, the results for `COC(=O)c1cccc(C2(C)C(=O)Nc3nc(-c4cn5ccnc5c(CCC(F)(F)C(F)(F)F)n4)nc(N)c32)c1` (single isomer, unassigned) [Example 270B, Methyl 3-(4-amino-5-methyl-6-oxo-2-(8-(3,3,4,4,4-pentafluorobutyl)imidazo[1,2-a]pyrazin-6-yl)-6,7-dihydro-5H-pyrrolo[2,3-d]pyrimidin-5-yl)benzoate] are 101% and 6.50.
`CC1(C(=O)NC2CC2)C(=O)Nc2nc(-c3cn4ccnc4c(Cc4cccc(F)c4)n3)nc(N)c21` (single isomer, unassigned) [Example 36B, 4-amino-N-cyclopropyl-2-(8-(3-fluorobenzyl)imidazo[1,2-a]pyrazin-6-yl)-5-methyl-6-oxo-6,7-dihydro-5H-pyrrolo[2,3-d]pyrimidine-5-carboxamide]: the pEC50 was 6.02. Further, the “% Act.” value (percent activation relative to standard Compound A in CHO-K1/sGC cells) is listed as 154%.
Regarding `CC(C)Cc1nc(-c2nc(N)c3c(n2)NC(=O)C3(C)c2ccc(C(F)(F)F)cc2)cn2ccnc12` (stereo not shown) [Example 128B, 4-amino-2-(8-isobutylimidazo[1,2-a]pyrazin-6-yl)-5-methyl-5-(4-(trifluoromethyl)phenyl)-5H-pyrrolo[2,3-d]pyrimidin-6(7H)-one], the Emax was 108% and the pEC50 was 6.79.
On the same counts, the results for `CCC(CC)Cc1nc(-c2nc(N)c3c(n2)NC(=O)C3(C)c2ccc(F)cc2)cn2ccnc12` (stereo not shown) [Example 13A, 4-amino-2-(8-(2-ethylbutyl)imidazo[1,2-a]pyrazin-6-yl)-5-(4-fluorophenyl)-5-methyl-5H-pyrrolo[2,3-d]pyrimidin-6(7H)-one] are 114% and 7.38.
Consider `CC1(C(=O)NC2CC2)C(=O)Nc2nc(-c3cn4cc(C(F)(F)F)nc4c(Cc4cccc(F)c4)n3)nc(N)c21` (stereo not shown) [Example 46A, 4-amino-N-cyclopropyl-2-(8-(3-fluorobenzyl)-2-(trifluoromethyl)imidazo[1,2-a]pyrazin-6-yl)-5-methyl-6-oxo-6,7-dihydro-5H-pyrrolo[2,3-d]pyrimidine-5-carboxamide], for which the Emax turned out to be 124% and the pEC50 is 6.24.
In the case of `CN(C)c1nc(-c2cn3ccnc3c(CCC(F)(F)C(F)(F)F)n2)nc2c1C(C)(c1ccc(F)cn1)C(=O)N2` (stereo not shown) [Example 291B, 4-(dimethylamino)-5-(5-fluoropyridin-2-yl)-5-methyl-2-(8-(3,3,4,4,4-pentafluorobutyl)imidazo[1,2-a]pyrazin-6-yl)-5H-pyrrolo[2,3-d]pyrimidin-6(7H)-one], the Emax was found to be 126% and the pEC50 was 6.10.
On the same counts, the results for `Cc1cc(F)cnc1C1(C2CC2)C(=O)Nc2nc(-c3cn4ccnc4c(CCC(F)(F)C(F)(F)F)n3)nc(N)c21` (single isomer, unassigned) [Example 375B, 4-amino-5-cyclopropyl-5-(5-fluoro-3-methylpyridin-2-yl)-2-(8-(3,3,4,4,4-pentafluorobutyl)imidazo[1,2-a]pyrazin-6-yl)-5H-pyrrolo[2,3-d]pyrimidin-6(7H)-one] are 41% and 6.03.
In the case of `CC1(c2ccc(F)cn2)C(=O)Nc2nc(-c3cn4c(N)cnc4c(CCC(F)(F)C(F)(F)F)n3)nc(N)c21` (stereo not shown) [Example 268B, 4-Amino-2-(3-amino-8-(3,3,4,4,4-pentafluorobutyl)imidazo[1,2-a]pyrazin-6-yl)-5-(5-fluoropyridin-2-yl)-5-methyl-5H-pyrrolo[2,3-d]pyrimidin-6(7H)-one], the Emax came out at 79% and the pEC50 was 6.47.
For `Cn1nnnc1C1(C2CC2)C(=O)Nc2nc(-c3cn4ccnc4c(CCC(F)(F)C(F)(F)F)n3)nc(N)c21` (single isomer, unassigned) [Example 325A, 4-amino-5-cyclopropyl-5-(1-methyl-1H-tetrazol-5-yl)-2-(8-(3,3,4,4,4-pentafluorobutyl)imidazo[1,2-a]pyrazin-6-yl]-5H-pyrrolo[2,3-d]pyrimidin-6(7H)-one] the same measures were 83% and 5.92.
For `CC1(c2ccc(C3CC3)cn2)C(=O)Nc2nc(-c3cn4ccnc4c(CCC(F)(F)C(F)(F)F)n3)nc(N)c21` (stereo not shown) [Example 227B, 4-amino-5-(5-cyclopropylpyridin-2-yl)-5-methyl-2-(8-(3,3,4,4,4-pentafluorobutyl)imidazo [1,2-a]pyrazin-6-yl)-5H-pyrrolo[2,3-d]pyrimidin-6(7H)-one], the Emax was 111% and the pEC50 was 6.60.
For `Nc1nc(-c2cn3ccnc3cn2)nc2c1C(c1ccc(Cl)cc1)(C1CC1)C(=O)N2` (stereo not shown) [Example 146B, 4-amino-5-(4-chlorophenyl)-5-cyclopropyl-2-(imidazo[1,2-a]pyrazin-6-yl)-5H-pyrrolo[2,3-d]pyrimidin-6(7H)-one] the same measures were 95% and 6.34.
For `Nc1nc(-c2cn3ccnc3c(Cc3ccccc3F)n2)nc2c1C(c1ccc(Cl)cn1)(C1CC1)C(=O)N2` (single isomer, unassigned) [Example 110B, 4-amino-5-(5-chloropyridin-2-yl)-5-cyclopropyl-2-(8-(2-fluorobenzyl)imidazo[1,2-a]pyrazin-6-yl)-5H-pyrrolo[2,3-d]pyrimidin-6(7H)-one], the Emax came to 151% and the pEC50 is 7.96.
